Experimental findings from patent US12024507B2, “Compounds as GLP-1R agonists” (Terns Pharmaceuticals, Inc., priority 2021, dated 2024) are described below.

The term CLint scaled denotes the capacity of the preparation to metabolise the compound, expressed as a volume cleared per time. A low value points to slow turnover. Usually EC50 stands for the concentration giving half of the maximal effect.

A short description of series [1]: Metabolic stability in human hepatocytes. The format is in vitro ADME. The settings on record: cryopreserved hepatocytes, 1×10^6 cells/mL; for CLint scaled at 1 μM: intrinsic clearance; for half-life at 1 μM: read-out: Human T1/2. On the procedure: (§1) Test compounds were incubated in rat and human hepatocytes and stability was assessed from the substrate […] approach. Test compounds were dissolved in dimethyl sulfoxide (DMSO) to create a 10 mM Stock, and then further diluted to create a 1000×Working Stock of 1 mM with DMSO in 96-well plates for test compounds and the positive control (midazolam). Vials containing cryopreserved hepatocytes were removed from the liquid nitrogen tank and immediately immersed in a 37° C. water bath. The vials were shaken gently until the contents had thawed and were then immediately emptied into 48 mL of pre-warmed HT Medium in a 50 mL conical tube. Cells remaining in the vial were resuspended with 1.0 mL of pre-warmed HT Medium and added to the conical tube. The tube was capped and then gently inverted several times to resuspend the hepatocytes. The cell suspension was centrifuged at 50×g at room temperature for 5 minutes and the supernatant discarded. The cell pellet was loosened by gently swirling the centrifuge tube and was re-suspended in 4 mL of warm Dulbecco's Modified Eagle medium (DMEM). Cell density was determined by a cell counter by Nexcelom, and DMEM medium was added to obtain a target density of 1×10^6 cells/mL. The assay was carried out in 96-well microtiter plates. Test Compounds were incubated at 1 μM with 1×10^6 cells/mL hepatocytes in DMEM for 0, 30, 60, 120 and 240 minutes. The incubation was carried out with gentle shaking at 37° C. under a humid atmosphere of 95% air/5% CO2. The volume of the incubation mixture was 37 μL with a final 0.1% DMSO. At each of the time points, the incubation was stopped by adding 150 μL quenching solution (100% acetonitrile, 0.1% formic acid containing bucetin as an internal standard for positive ESI mode). Subsequently, the mixtures were vortexed for 20 min and centrifuged at 4,000 RPM at 10° C. The supernatant (80 μL) was transferred to a clean 96-well plate and analyzed by LC-MS/MS. Midazolam at 1 μM with a final 0.1% DMSO was included as a positive control to verify assay performance. The percent parent remaining, intrinsic and predicted hepatic clearance and t1/2 were calculated. All samples were analyzed by LC-MS/MS using an AB Sciex API 4000 instrument, coupled to a Shimadzu LC-20AD LC Pump system. Separation was achieved using a Waters Atlantis T3 dC18 reverse phase HPLC column (20 mm×2.1 mm) at a flow rate of 0.5 mL/min. The mobile phase consisted of 0.1% formic acid in water (solvent A) and 0.1% formic acid in 100% acetonitrile (solvent B). Elution conditions are detailed below.
(§2) The ion optics of each test compound were optimized for their declustering potential (DP), […] (CE), collision-cell exit potential (CXP) and used in a selected ion monitoring experiment in the positive ion mode. The peak area ratio of each test compound to internal standard was then evaluated for stability. The extent of metabolism was calculated based on the disappearance of the test compound, compared to its initial concentration. The initial rates of clearance of the test compound were calculated using the linear regression plot of semi-log % remaining of the compound versus time.
(§3) The predicted hepatic clearance (CLhep) was calculated using the well stirred method with the following formula with CLint(in vivo) normalized based on liver weight: CLint(in vivo)=CLint×Hepatocellularity×liver weight CLhep predicted=(CLint(in vivo)×Qliver)/(CLint(in vivo)+Qliver) Where Qliver ((ml/min/kg) is Liver Blood Flow
(§4) The relevant physiological parameters of liver weight, blood flow, and hepatocellularity for various species are listed below:
(§5) Results are presented in the Table B3 below for the intrinsic clearance (mL/min/kg) and half-life (t1/2).

Series [2] has as its target T1, human GLP-1R receptor (Homo sapiens, UniProt P43220).
T1 construct: expressed in transfected cells
Nature of the series: GLP-1R cell assay (cAMP TR-FRET, low expression CHO-K1_hGLP-1Rlow_clone10 cell line). Type of series: cell-based. Particulars: CHO-K1_hGLP-1Rlow_clone10 cells, relative to control GLP-1 peptide agonist, read-out: GLP1 EC50. Here is the method:
Stable cell lines expressing high and low GLP-1R surface expression were generated in CHO-K1 cells transfected (Fugene 6) with a puromycin selectable DNA plasmid encoding human GLP-1R receptor (accession number: NM_002062.5) under control of an EF1A promoter. Transfected cells were seeded into 24-well plates (9,000 cells/well) containing complete medium and incubated in a humidified incubator at 37° C. with 5% carbon dioxide. After overnight incubation, medium was replaced with complete medium supplemented with puromycin (6 μg/mL) and refreshed every 2-3 days to select for stably transfected cells. Individual pools of selected cells were expanded prior to analysis for responsiveness to GLP-1 control peptide using a TR-FRET assay to detect cAMP (LANCE Ultra cAMP Assay, Perkin Elmer). Briefly, cells were collected in Versene solution, plated in 384-well plates (1,000 cells/well) and combined with serially diluted GLP-1R control peptide (10 nL) using an acoustic dispenser (ECHO). Plates were incubated for 30 minutes at 25° C. prior to the addition of EU-cAMP tracer (5 μL) and Ulight-anti-cAMP (5 μL) reagents to each well, followed by 15 minutes incubation at 25° C. TR-FRET signal was detected using an EnVision Multimode Plate Reader (excitation=320 nm; emission=615 and 655 nm). Dose-response curves were used to generate EC50 values as a measure of responsiveness to the GLP-1R control peptide. Selected cell lines were monitored for responsiveness over multiple passages to ensure stability. […] Briefly, GLP-1R expression was analyzed by flow cytometry using a fluorescein-labeled Exendin-4 peptide fluorescent probe (FLEX). Cells were harvested in Versene solution and washed 3-times with PBS+0.5% BSA before incubation with FLEX reagent (10 μM) for 2 hours at room temperature. After incubation, cells were washed 3-times in PBS+0.5% BSA before final resuspension in PBS prior to analysis by flow cytometry to measure FLEX mean fluorescence intensity (MFI) as a measure of GLP-1R expression on the cell surface.
For compound testing in the CHO-K1_hGLP-1Rlow_clone10 cell line, cells were seeded in 384-well plates (1,000 cells/well). Test compounds were serially diluted in DMSO (10-point, 3-fold dilution), added to wells using an ECHO dispenser (10 nL/well) and plates were centrifuged for 1 min and agitated for 2 min at room temperature prior to 30-minute incubation at 25° C. After incubation, Eu-cAMP (5 μL) and Ulight-anti-cAMP (5 μL) reagents were added to each well, followed by centrifugation for 1 minute, agitation for 2 minutes at room temperature, and final incubation of the plates at 25° C. for 15 minutes. Plates were read using an EnVision microplate reader (excitation=320 nm; emission=615 and 655 nm). Dose-response curves were generated from duplicate wells based on percent activation calculated relative to a control GLP-1 peptide agonist that was run in parallel. EC50 values were determined by fitting percent activation as a function of compound concentration using the Hill equation (XLfit).
The compounds tested were compound samples prepared according to the General Procedures described in the Examples section.
(TR-FRET usually uses a lanthanide donor and a delayed reading to cut background.)

Series [3] can be described thus: Metabolic stability in rat hepatocytes. The settings on record: cryopreserved hepatocytes, 1×10^6 cells/mL; for CLint scaled at 1 μM: intrinsic clearance; for half-life at 1 μM: read-out: Rat T1/2. The format is in vitro ADME. On the procedure: as §1, §2, §3, §4, §5

T1 sequence (P43220 24-463): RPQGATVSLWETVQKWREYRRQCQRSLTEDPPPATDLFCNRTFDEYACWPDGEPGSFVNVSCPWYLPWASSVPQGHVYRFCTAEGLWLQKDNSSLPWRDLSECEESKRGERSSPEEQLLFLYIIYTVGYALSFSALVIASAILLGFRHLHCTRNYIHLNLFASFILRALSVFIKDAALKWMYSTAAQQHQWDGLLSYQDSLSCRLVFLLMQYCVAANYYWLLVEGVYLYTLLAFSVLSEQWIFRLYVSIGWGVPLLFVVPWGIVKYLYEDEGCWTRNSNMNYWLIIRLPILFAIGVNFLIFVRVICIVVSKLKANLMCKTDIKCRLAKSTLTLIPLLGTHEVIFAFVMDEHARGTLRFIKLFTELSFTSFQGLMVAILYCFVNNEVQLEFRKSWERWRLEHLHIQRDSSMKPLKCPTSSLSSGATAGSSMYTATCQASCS

Take `N#Cc1ccc(COc2cccc(C3CCN(Cc4nc5ccc(-c6nnn[nH]6)cc5n4C[C@@H]4CCO4)CC3)n2)c(F)c1` [Compound 8]: in series [1], the CLint scaled at 1 μM was found to be 7.99 ± 0.99 mL/min/kg and the half-life at 1 μM was determined as 5.02 ± 0.623 h. For the same molecule, the EC50 in series [2] was 15 nM. Also, in series [3], the intrinsic metabolic clearance (CLint scaled) at 1 μM is 46.5 ± 2.11 mL/min/kg and the half-life at 1 μM was determined as 1.19 ± 0.054 h.

In the case of `N#Cc1ccc(COc2cccc(C3CCN(Cc4nc5ccc(-c6nc(=O)[nH]o6)cc5n4Cc4cncs4)CC3)n2)c(F)c1` [Compound 13, 3-fluoro-4-(((6-(1-((6-(3-oxo-2,3-dihydro-1,2,4-oxadiazol-5-yl)-1-(thiazol-5-ylmethyl)-1H-benzo[d]imidazol-2-yl)methyl)piperidin-4-yl)pyridin-2-yl)oxy)methyl)benzonitrile], in series [1], the intrinsic metabolic clearance (CLint scaled) at 1 μM is 35.8 ± 1.06 mL/min/kg and the half-life at 1 μM came to 1.12 ± 0.0332 h. For the same molecule, in series [2], the concentration for a half-maximal effect (EC50) was determined as 25.2 nM. For the same molecule, in series [3], the CLint scaled at 1 μM was 111 ± 2.29 mL/min/kg and the half-life at 1 μM came to 0.501 ± 0.0103 h.
